{"source": "patent US9771369B2", "about": "“Compounds and methods for kinase modulation, and indications therefor” (Plexxikon Inc., priority 2014, dated 2017)"}
{"target": "c-kit mutant D816V (Homo sapiens (Human), UniProt P10721, D816V/DEL694-753)", "sequence (P10721 other isoform, or with tags, fused parts or gaps D816V/del 694-753)": "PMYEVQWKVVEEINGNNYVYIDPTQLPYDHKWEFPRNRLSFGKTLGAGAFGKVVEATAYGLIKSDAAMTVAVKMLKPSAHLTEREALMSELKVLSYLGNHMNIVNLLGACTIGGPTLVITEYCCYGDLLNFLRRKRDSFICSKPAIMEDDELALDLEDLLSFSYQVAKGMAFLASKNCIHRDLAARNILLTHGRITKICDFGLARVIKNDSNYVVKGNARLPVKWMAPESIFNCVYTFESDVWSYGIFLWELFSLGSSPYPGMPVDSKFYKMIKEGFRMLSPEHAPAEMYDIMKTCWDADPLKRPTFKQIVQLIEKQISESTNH", "assay": "c-Kit mutant D816V biochemical assay (AlphaScreen kinase activity)", "outline": "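Recombinant His-tagged c-Kit D816V kinase domain (residues 551-934, insert 694-753 deleted, E. coli-expressed) phosphorylating 30 nM biotin-(E4Y)10 with 10 μM ATP, HEPES pH 7.2, Mg/Mn, 5% DMSO; 30 min, room temperature. Phosphorylation detected by AlphaScreen (streptavidin donor/PY30 acceptor beads); IC50 from 8-point 1:3 series.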", "units": {"IC50": "µM"}}
{"molecule": "Cc1nc(C2CCN(c3ncnc4[nH]c(-c5ccc(F)cc5)cc34)CC2)[nH]c1-c1ccc(F)cc1", "note": "[P-3006, 6-(4-fluorophenyl)-4-[4-[5-(4-fluorophenyl)-4-methyl-1H-imidazol-2-yl]-1-piperidyl]-7H-pyrrolo[2,3-d]pyrimidine]", "IC50": "0.0001 to 1"}
{"molecule": "Cc1ccc(-c2[nH]c(C3CCN(c4ncnc5[nH]c(-c6ccc(C#N)cc6)cc45)CC3)nc2C)cc1", "note": "[P-3089, 4-[4-[4-[4-methyl-5-(p-tolyl)-1H-imidazol-2-yl]-1-piperidyl]-7H-pyrrolo[2,3-d]pyrimidin-6-yl]benzonitrile]", "IC50": "0.0001 to 1"}
{"molecule": "Cc1ccc(-c2[nH]c(C3CCN(c4ncnc5[nH]c(-c6ccc(C#N)cc6)cc45)CC3)nc2C)s1", "note": "[P-3090, 4-[4-[4-[4-methyl-5-(5-methyl-2-thienyl)-1H-imidazol-2-yl]-1-piperidyl]-7H-pyrrolo[2,3-d]pyrimidin-6-yl]benzonitrile]", "IC50": "0.0001 to 1"}
{"molecule": "COc1cc(-c2cc3c(N4CCC(c5nc(C)c(-c6ccc(OC(C)C)cc6)[nH]5)CC4)ncnc3[nH]2)ccn1", "note": "[P-3091, 4-[4-[5-(4-isopropoxyphenyl)-4-methyl-1H-imidazol-2-yl]-1-piperidyl]-6-(2-methoxy-4-pyridyl)-7H-pyrrolo[2,3-d]pyrimidine]", "IC50": "0.0001 to 1"}
{"molecule": "Cc1nc(C2CCN(c3ncnc4[nH]c(-c5ccc(F)cc5)cc34)CC2)[nH]c1-c1ccc(OC(C)C)cc1", "note": "[P-3092, 6-(4-fluorophenyl)-4-[4-[5-(4-isopropoxyphenyl)-4-methyl-1H-imidazol-2-yl]-1-piperidyl]-7H-pyrrolo[2,3-d]pyrimidine]", "IC50": "0.0001 to 1"}
{"molecule": "Cc1nc(C2CCN(c3ncnc4[nH]c(-c5ccc(C#N)cc5)cc34)CC2)[nH]c1-c1ccc(OC(C)C)cc1", "note": "[P-3093, 4-[4-[4-[5-(4-isopropoxyphenyl)-4-methyl-1H-imidazol-2-yl]-1-piperidyl]-7H-pyrrolo[2,3-d]pyrimidin-6-yl]benzonitrile]", "IC50": "0.0001 to 1"}
{"molecule": "CCOc1cc(-c2[nH]c(C3CCN(c4ncnc5[nH]c(-c6ccc(F)cc6)cc45)CC3)nc2C)ccc1C", "note": "[P-3094, 4-[4-[5-(3-ethoxy-4-methyl-phenyl)-4-methyl-1H-imidazol-2-yl]-1-piperidyl]-6-(4-fluorophenyl)-7H-pyrrolo[2,3-d]pyrimidine]", "IC50": "0.0001 to 1"}
